Laboratory results: patent US6218597A, “Transgenic model and treatment for heart disease” (University Technology Corporation, priority 1998, dated 2001)

Target: βAR (β-adrenergic receptor), cardiac sarcolemmal membranes of wild-type FVB/N mice
Details: read-out: Kd for ICYP

CC(C)(C)NCC(O)COc1cccc2[nH]c(C#N)c([125I])c12 (stereo not shown) [ICYP, ^125 I-iodocyanopindolol]
Kd: ~0.02 nM
